≈ marks a conversion by molar mass, not a printed value.
Tests used:
Type in all cases: cell-based
[1] = system: K. pneumoniae strain MP-548; test: Broth dilution MIC determination (CLSI) against K. pneumoniae strain MP-548; settings: Klebsiella pneumoniae, MP548
Method in brief: (§1)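 Activity is reported in categories: ≤4 mg/L as "+++", 8 to below 32 mg/L as "++", and 32 mg/L or more as "+". Testing followed CLSI broth dilution procedures.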

[2] = system: E. coli strain MP-4; test: Broth dilution MIC determination (CLSI) against E. coli strain MP-4; settings: Escherichia coli, MP4
Method in brief: as §1

[3] = system: A. baumannii strain MP-15; test: Broth dilution MIC determination (CLSI) against A. baumannii strain MP-15; settings: Acinetobacter baumannii, MP15
Method in brief: as §1

[4] = system: S. aureus strain MP-12; test: Broth dilution MIC determination (CLSI) against S. aureus strain MP-12; settings: Staphylococcus aureus, MP12, strain MP-12
Method in brief: as §1

[5] = system: P. aeruginosa strain MP-3; test: Broth dilution MIC determination (CLSI) against P. aeruginosa strain MP-3; settings: Pseudomonas aeruginosa, MP3
Method in brief: as §1

Row | Compound | MIC [1] [µg/mL] | MIC [2] [µg/mL] | MIC [3] [µg/mL] | MIC [4] [µg/mL] | MIC [5] [µg/mL]
1 | CC[C@H]1OC(=O)[C@@](C)(F)C(=O)[C@H](C)[C@@H](O[C@@H]2OC(CNCc3ccccn3)CC(N(C)C)C2O)[C@](C)(OC)C[C@@H](C)C(=O)[C@H](C)[C@H]2NC(=O)O[C@@]21C (some centres unmarked) [Compound 100] | ≥ 32 | 8 to 32 (≈ 10.9 to 43.4 µM) | ≥ 32 | ≤ 4 | ≥ 32
2 | CC[C@H]1OC(=O)C(C)C(=O)[C@H](C)[C@@H](O[C@@H]2O[C@H](CCC3CC3)CC(N(C)C)[C@H]2O)[C@](C)(OC)C[C@@H](C)CN[C@H](C)[C@H]2NC(=O)O[C@@]21C (some centres unmarked) [Compound 185, 3-Descladinosyl-3-oxo-6-O-methyl-N9a-desmethyl-11,12-dideoxy-12,11-(oxycarbonylimino)-6′-cyclopropylmethyl Azithromycin] | ≥ 32 | 8 to 32 (≈ 12 to 47.9 µM) | 8 to 32 (≈ 12 to 47.9 µM) | 8 to 32 (≈ 12 to 47.9 µM) | ≥ 32
3 | CO[C@]1(C)C[C@@H](C)CN[C@H](C)[C@H]2NC(=O)O[C@]2(C)[C@@H](C)OC(=O)C(C)C(=O)[C@H](C)[C@H]1OC1OC(CN(C)CC2CC2)CC(N(C)C)C1O (some centres unmarked) [Compound 156, 3-Desdadinosyl-3-oxo-6-O-methyl-N9a-desmethyl-11,12-dideoxy-12,11-(oxycarbonylimino)-6′-methylcyclopropylmethyl-13-methyl Azithromycin] | ≥ 32 | ≥ 32 | ≥ 32 | ≥ 32 | ≥ 32
4 | CC[C@H]1OC(=O)[C@@]2(C)CC/C(=N\O)CO[C@](C)(C[C@@H](C)CN[C@H](C)[C@H]3NC(=O)O[C@@]31C)[C@H](OC1OC(C)CC(N(C)C)C1O)[C@@H](C)C2=O (some centres unmarked) [Compound 227] | ≥ 32 | ≥ 32 | ≥ 32 | ≥ 32 | ≥ 32
5 | CC[C@H]1OC(=O)[C@@]2(C)CCOC(C)(C[C@@H](C)CN[C@H](C)[C@H]3NC(=O)O[C@@]31C)[C@H](O[C@@H]1O[C@H](CNCC(F)(F)F)C[C@H](N(C)C)[C@H]1O)[C@@H](C)C2=O [Compound 206] | 8 to 32 (≈ 11.1 to 44.3 µM) | ≤ 4 | ≥ 32 | ≤ 4 | ≥ 32
6 | CC[C@H]1OC(=O)C(C)C(=O)[C@H](C)[C@@H](OC2OC(CN3CCN(C(C)=O)CC3)CC(N(C)C)C2O)[C@](C)(OC)C[C@@H](C)CN[C@H](C)[C@H]2NC(=O)O[C@@]21C (some centres unmarked) [Compound 125, 3-Descladinosyl-3-oxo-6-O-methyl-N9a-desmethyl-11,12-dideoxy-12,11-(oxycarbonylimino)-6′-(1-(4-acetyl)-piperazinyl) Azithromycin] | ≥ 32 | ≥ 32 | ≥ 32 | ≥ 32 | ≥ 32
7 | CC[C@@H]1CC(N(C)C)[C@@H](O)[C@H](O[C@@H]2[C@@H](C)C(=O)C(C)C(=O)O[C@H](CC)[C@@]3(C)OC(=O)N[C@@H]3[C@@H](C)NC[C@H](C)C[C@@]2(C)OC)O1 (some centres unmarked) [Compound 182, 3-Descladinosyl-3-oxo-6-O-methyl-N9a-desmethyl-11,12-dideoxy-12,11-(oxycarbonylimino)-5′-desmethyl-5′-ethyl Azithromycin] | 8 to 32 (≈ 12.7 to 51 µM) | ≤ 4 | 8 to 32 (≈ 12.7 to 51 µM) | 8 to 32 (≈ 12.7 to 51 µM) | ≥ 32
8 | CC[C@H]1OC(=O)C(C)C(=O)[C@H](C)[C@@H](OC2OC(CN(C)CCOC)CC(N(C)C)C2O)[C@](C)(OC)C[C@@H](C)CN[C@H](C)[C@H]2NC(=O)O[C@@]21C (some centres unmarked) [Compound 131, 3-Descladinosyl-3-oxo-6-O-methyl-N9a-desmethyl-11,12-dideoxy-12,11-(oxycarbonylimino)-6′-[N-(methyl)-2-methoxyethylamino]Azithromycin] | 8 to 32 (≈ 11.4 to 45.7 µM) | ≤ 4 | ≥ 32 | ≥ 32 | ≥ 32
9 | CC[C@H]1OC(=O)C(C)C(=O)[C@H](C)[C@@H](O[C@@H]2OC(CNCc3ccc(C(C)(C)C)cc3)CC(N(C)C)C2O)[C@](C)(OC)C[C@@H](C)CN[C@H](C)[C@H]2NC(=O)O[C@@]21C (some centres unmarked) [Compound 37] | ≥ 32 | ≥ 32 | ≥ 32 | ≥ 32 | ≥ 32
10 | CC[C@H]1OC(=O)C(C)C(=O)[C@H](C)[C@@H](O[C@@H]2OC(CNc3cccnc3)CC(N(C)C)C2O)[C@](C)(OC)C[C@@H](C)CN[C@H](C)[C@H]2NC(=O)O[C@@]21C (some centres unmarked) [Compound 52] | 8 to 32 (≈ 11.3 to 45.3 µM) | ≤ 4 | ≥ 32 | ≥ 32 | ≥ 32
11 | CC[C@H]1OC(=O)C(C)C(=O)[C@H](C)[C@@H](OC2OC(CN(C)C(C)C)CC(N(C)C)C2O)[C@](C)(OC)C[C@@H](C)CN(C)[C@H](C)[C@H]2NC(=O)O[C@@]21C (some centres unmarked) [Compound 160, 3-Desdadinosyl-3-oxo-6-O-methyl-9a-desmethyl-11,12-dideoxy-12,11-(oxycarbonylimino)-6′-isopropylmethylamino Azithromycin] | ≥ 32 | ≤ 4 | ≥ 32 | ≥ 32 | ≥ 32
12 | CC[C@H]1OC(=O)C(C)C(=O)[C@H](C)[C@@H](OC2OC(CNC3CCC3)CC(N(C)C)C2O)[C@](C)(OC)C[C@@H](C)CN[C@H](C)[C@H]2NC(=O)O[C@@]21C (some centres unmarked) [Compound 120, 3-Descladinosyl-3-oxo-6-O-methyl-N9a-desmethyl-11,12-dideoxy-12,11-(oxycarbonylimino)-6′-cyclobutylamino Azithromycin] | ≤ 4 | ≤ 4 | ≥ 32 | ≥ 32 | ≥ 32
13 | CC[C@H]1OC(=O)C(C)C(=O)[C@H](C)[C@@H](OC2OC(CN3CC(O)C3)CC(N(C)C)C2O)[C@](C)(OC)C[C@@H](C)CN[C@H](C)[C@H]2NC(=O)O[C@@]21C (some centres unmarked) [Compound 128, 3-Descladinosyl-3-oxo-6-O-methyl-N9a-desmethyl-11,12-dideoxy-12,11-(oxycarbonylimino)-6′-(3-hydroxy-1-azetidinyl) Azithromycin] | ≥ 32 | ≥ 32 | ≥ 32 | ≥ 32 | ≥ 32
14 | CC[C@H]1OC(=O)C(C)C(=O)[C@H](C)[C@@H](OC2OC(CN(C)C34CC(C3)C4)CC(N(C)C)C2O)[C@](C)(OC)C[C@@H](C)CN[C@H](C)[C@H]2NC(=O)O[C@@]21C (some centres unmarked) [Compound 152, 3-Descladinosyl-3-oxo-6-O-methyl-N9a-desmethyl-11,12-dideoxy-12,11-(oxycarbonylimino)-6′-bicyclo[1.1.1]pentanylmethylamino Azithromycin] | ≥ 32 | ≥ 32 | 8 to 32 (≈ 11.3 to 45.1 µM) | 8 to 32 (≈ 11.3 to 45.1 µM) | ≥ 32
15 | CC[C@H]1OC(=O)C(C)C(=O)[C@H](C)[C@@H](OC2OC(C(=O)NC)CC(N(C)C)C2O)[C@](C)(OC)C[C@@H](C)CN[C@H](C)[C@H]2NC(=O)O[C@@]21C (some centres unmarked) [Compound 166, 3-Descladinosyl-3-oxo-6-O-methyl-N9a-desmethyl-11,12-dideoxy-12,11-(oxycarbonylimino)-5′-desmethyl-5′-(N-methylcarboxamido) Azithromycin] | ≥ 32 | 8 to 32 (≈ 12.2 to 48.7 µM) | ≥ 32 | ≥ 32 | ≥ 32
16 | CC[C@H]1OC(=O)C(C)C(=O)[C@H](C)[C@@H](OC2OC(CN(C)C)CC(N(C)C)C2O)[C@](C)(OC)C[C@@H](C)CN(C)[C@H](C)[C@H]2NC(=O)O[C@@]21C (some centres unmarked) [Compound 159, 3-Descladinosyl-3-oxo-6-O-methyl-11,12-dideoxy-12,11-(oxycarbonylimino)-6′-dimethylamino Azithromycin] | 8 to 32 (≈ 11.9 to 47.7 µM) | ≤ 4 | ≥ 32 | ≥ 32 | ≥ 32
17 | CC[C@H]1OC(=O)[C@@]2(C)CCOC(C)(C[C@@H](C)CN(CC)[C@H](C)[C@H]3NC(=O)O[C@@]31C)[C@H](O[C@@H]1OC(C)CC(N(C)C)C1O)[C@@H](C)C2=O (some centres unmarked) [Compound 221] | ≤ 4 | ≤ 4 | ≥ 32 | ≤ 4 | ≥ 32
18 | CC[C@H]1OC(=O)C(C)C(=O)[C@H](C)[C@@H](O[C@@H]2OC(CNc3ccc(F)cc3)CC(N(C)C)C2O)[C@](C)(OC)C[C@@H](C)CN[C@H](C)[C@H]2NC(=O)O[C@@]21C (some centres unmarked) [Compound 46] | 8 to 32 (≈ 11.1 to 44.3 µM) | ≤ 4 | ≥ 32 | 8 to 32 (≈ 11.1 to 44.3 µM) | ≥ 32
19 | CC[C@H]1OC(=O)[C@@](C)(F)C(=O)[C@H](C)[C@@H](O[C@@H]2OC(CNc3ccc(-c4cncnc4)cc3)CC(N(C)C)C2O)[C@](C)(OC)C[C@@H](C)C(=O)[C@H](C)[C@H]2NC(=O)O[C@@]21C (some centres unmarked) [Compound 94] | ≥ 32 | ≥ 32 | 8 to 32 (≈ 10 to 40 µM) | ≤ 4 | ≥ 32
20 | CC[C@H]1OC(=O)[C@@]2(C)CCOC(C)(C[C@@H](C)CN[C@H](C)[C@H]3NC(=O)O[C@@]31C)[C@H](O[C@@H]1OC(CNC(C)C)CC(N(C)C)C1O)[C@@H](C)C2=O (some centres unmarked) [Compound 213] | ≤ 4 | ≤ 4 | ≥ 32 | ≤ 4 | ≥ 32
21 | CC[C@H]1OC(=O)C(C)C(=O)[C@H](C)[C@@H](O[C@@H]2O[C@H](CN(C)C(=O)CNC)CC(N(C)C)[C@H]2O)[C@](C)(OC)C[C@@H](C)CN[C@H](C)[C@H]2NC(=O)O[C@@]21C (some centres unmarked) [Compound 173, 3-Descladinosyl-3-oxo-6-O-methyl-N9a-desmethyl-11,12-dideoxy-12,11-(oxycarbonylimino)-6′-N-methyl-2″-methylamino-acetamide Azithromycin] | ≥ 32 | ≥ 32 | ≥ 32 | ≥ 32 | ≥ 32
22 | CC[C@H]1OC(=O)C(C)C(=O)[C@H](C)[C@@H](O[C@@H]2O[C@H](C(=O)O)CC(N(C)C)[C@H]2O)[C@](C)(OC)C[C@@H](C)CN[C@H](C)[C@H]2NC(=O)O[C@@]21C (some centres unmarked) [Compound 193] | ≥ 32 | ≥ 32 | ≥ 32 | ≥ 32 | ≥ 32
